Data on two substances can be found in patent US8349583B2, “Distinguishing cells in a sample by inactivating extracellular enzyme before releasing intracellular enzyme” (priority 2005, dated 2013).

What all share (assay type): biochemical
The nature of assay [1]: AK activity after transient pH drop or acidic incubation at pH 4. To be noted: for AK activity relative to control: listed as AK alone. How it is done:
(§1) Experimental work used adenylate kinase-generated ATP to drive a luciferin/luciferase activity, giving results in RLUs as a quantitative measure of initial ATP levels. All AK assays were performed at pH 7.5, and 37° C. Results of the assay were read at ambient temperature.
In further experiments, three treatment conditions were tested: (i) a control, run at pH 7.5 with no pH change; (ii) a transient pH drop before the assay, where pH was reduced to pH 4 and then returned to pH 7.5; and (iii) an acidic incubation, where pH was reduced to pH 4 for 15 minutes. AK activity was then assessed. In parallel tests, the effect of these pH conditions on the viability of E. coli and E. faecalis was assessed.

Assay [2] in a line: Effect of incubation pH on purified AK activity (luciferin/luciferase). The method, then: as §1
To assess the effect of pH on AK activity, purified enzyme was incubated for 1 hour at various pH, with pH 7.5 being the control (normal assay conditions). AK activity was measured by using the bioluminescent luciferin/luciferase to detect AK-generated ATP.

Assay [3] deals with bacterial adenylate kinase. Kind of assay: AK reduction by different proteases over time for different organisms. Conditions: 37° C., 10 to 120 minutes; trypsin 1000, papain 10, proteinase K 2.5, chymotrypsin 1 U/ml. The method, then: • 1. Bacteria were scraped from plates and inoculated in approximately 20 ml of broth only. These were incubated overnight at 37° C. • 2. 10× stocks of the enzymes were prepared in broth only: • a. 10 mg of 16,000 U/mg Trypsin added to 16 ml of broth to give 10,000 U/ml (10×) stock. • b. 25 mg of 4 U/mg Papain added to 1 ml of broth to give 100 U/ml (10×) stock. • c. 10 mg of 7.5 U/mg proteinase K added to 3 ml of broth to give a 25 U/ml (10×) stock. • d. 10.5 ul of 239 U/ml chymotrypsin added to 239.5 ul of broth to give a 10 U/ml stock. • 3. The inoculums were then centrifuged at approximately 14030 RCF for one hour. • 4. The supernatant was then taken, tested for adenylate kinase activity (described below), and diluted with broth only if needed to give about 10^5 cpm/ml. • 5. The supernatant was then assayed for adenylate kinase activity at time point zero in triplicate and averaged. • 6. 1.5 ml solutions of the supernatants were prepared with the correct concentration of enzyme, or broth for control. These were incubated at 37° C. • 7. Samples were then taken and assayed in triplicate for adenylate kinase activity at 10, 30, 60 and 120 minutes. • 8. The triplicates were averaged, and normalised by dividing by the time point zero average. Adenylate Kinase Assay (AK Only No Cells) • 1. […] added to a cuvette. • 2. […] RLU read immediately. […]

Values joined by “and” are separate entries in the source; they are usually repeats but may differ in a detail not shown here. Equal entries are not always repeated. Marks after values point to notes of the source that are not given here.

As to adenylate kinase [AK], the “AK activity relative to control” value in assay [1] (acidic incubation: pH 4 for 15 minutes) was 13% and 8%; in assay [1] (transient pH drop: reduced to pH 4 and returned to pH 7.5), 91% and 89%. For the same substance, the “reduction in AK activity” value in assay [1] (incubation at pH 4) is ~10 fold. For the same substance, the “AK activity, RLU” value in assay [2] (incubated 1 hour at pH 3) is on record as 15.7 RLU (10^3); in assay [2] (incubated 1 hour at pH 4), 11.1 RLU (10^3); in assay [2] (incubated 1 hour at pH 5) it was 299.0 RLU (10^3); in assay [2] (incubated 1 hour at pH 6), 333.5 RLU (10^3); in assay [2] (incubated 1 hour at pH 7.5 (control, normal assay conditions)), 288.2 RLU (10^3); in assay [2] (incubated 1 hour at pH 9), 262.4 RLU (10^3). Besides, the “AK activity, RLU” value in assay [2] (incubated 1 hour at pH 10) is on record as 214.5 RLU (10^3); in assay [2] (incubated 1 hour at pH 11), 201.2 RLU (10^3); in assay [2] (incubated 1 hour at pH 12), 88.6 RLU (10^3).

For the substance chymotrypsin, the “degradation of AK extracted from different organisms” value in assay [3] was “degraded the AK in a similar manner to trypsin”.
